# “Also recorded” adds a separate entry of the source.
# Legend:
# [1] = test system: TNF-induced reduction of grip strength; test: Biceps muscle grip strength after TNF-induced muscle pain; assay type: in vivo, rat
# Protocol: (§1) Adult male Sprague Dawley rats with a body weight of 250 g to 300 g were used (supplier: Charles River, Sulzfeld, Germany). Animals were group-housed (3 animals per cage) and maintained in a room with controlled temperature (21-22° C.) and a reversed light-dark cycle (12 h/12 h) with food and water available ad libitum. All experiments were approved by the Bavarian State animal experimentation committee and carried out in accordance with its regulations.
# (§2) Recombinant rat tumor necrosis factor alpha (herein referred to as TNF) was obtained from R&D Systems, Minneapolis, Minn., U.S.A. TNF was diluted in 0.9% NaCl and used in a concentration of 1 μg in 50 μl. Injections were performed in short halothane narcosis with a 30 g needle bilaterally into the gastrocnemius or into the biceps brachii muscle. All rats were used to the behavioral tests before injections and baseline values were recorded over three test days.
# Grip strength of the forelimbs was tested with a digital grip force meter (DFIS series, Chatillon, Greensboro, N.C., U.S.A.). The rat was positioned to grab the grid with the forelimbs and was gently pulled so that the grip strength could be recorded. Means of three trials were calculated. The effect of the TNF treatment was calculated for each animal separately and only animals with a significant TNF effect were included for further analysis.
# Rats were injected with TNF into the biceps brachii muscle at 8 am. Six hours later, grip strength of the forelimbs was tested with a digital grip force meter. Test drug was administered, and grip strength was again tested after 30 to 60 minutes.
# (§3) The rats, initially 10 per group, were treated with either 3, 10 or 30 mg/kg lacosamide, 2 mg/kg metamizol, 30 or 100 mg/kg pregabalin, 100 mg/kg gabapentin, or the NaCl vehicle, i.p. (intraperitoneally). Volume of i.p. injections was 0.5 ml. A pilot study was performed to confirm that i.m. (intramuscular) injection of 1 μg TNF into the gastrocnemius muscle was sufficient to induce pressure hyperalgesia.
# (§4) Data are shown in graphs displaying means and standard errors of the means (SEM). Pre- and post-treatment data were compared using ANOVA (analysis of variance) and a Tukey post hoc test. Means of treatment groups were compared using a one-way ANOVA and Dunnett's post hoc test. Maximal possible effects (MPE) were calculated for all types of treatment.
# [2] = test system: muscle pressure hyperalgesia induced by TNF; test: Withdrawal threshold to muscle pressure (Randall-Selitto) after TNF injection into gastrocnemius muscle; assay type: in vivo, rat; conditions: for full reversal of the muscle hyperalgesia: pregabalin 30 and 100 mg/kg
# Protocol: as §1, §2
# Mechanical withdrawal thresholds to muscle pressure were measured with an analgesimeter (Ugo Basile, Comerio, Italy). The rat was allowed to crawl into a sock which helps the rat to relax. The hind limbs were positioned such that an increasing pressure could be applied onto the gastrocnemius muscle (maximum 250 g). The pressure needed to elicit withdrawal was recorded. Means of 3 trials for each hind limb were calculated (interstimulus interval of >30 sec). Only animals with a significant TNF effect were included for further analysis.
# Rats were injected with TNF into the gastrocnemius muscle at 2 pm. Eighteen hours later, rats were tested for pressure hyperalgesia pre- and post-administration of the test drug. Rats were tested for pressure hyperalgesia 30 to 60 minutes after drug administration.
# as §3, §4
# [3] = test system: monosodium iodoacetate-induced mechanical hyperalgesia; test: Mechanical hyperalgesia (Randall-Selitto paw pressure) in iodoacetate rat model of osteoarthritis; assay type: in vivo; conditions: for paw pressure withdrawal threshold compared to iodoacetate/vehicle treated animals: day 3
# [4] = test system: monosodium iodoacetate-induced tactile allodynia; test: Tactile allodynia (von Frey filaments) in iodoacetate rat model of osteoarthritis; assay type: in vivo; conditions: day 3 and day 7
# [5] = test system: formalin-induced flinching and licking of the affected paw; test: Rat formalin paw test (late phase); assay type: in vivo; conditions: for effect on time spent licking: lacosamide 10 mg/kg i.p.
# Protocol: Rats were given an intraplantar injection of 5% formalin (50 μl) into the posterior left paw. This treatment induces a recognizable flinching and licking response of the affected paw in control animals. The number of flinches was counted for 15 minutes, beginning 20 minutes after injection of formalin. The time spent licking the affected paw was also recorded.
# Male Rj: Wistar (Han) rats, 10 per group, weighing 100-130 g at the beginning of the experiments were studied per group. The test was performed blind. […]
# Lacosamide (10 and 20 mg/kg), memantine (4 and 8 mg/kg), combinations of lacosamide (10 and 20 mg/kg) with memantine (4 and 8 mg/kg), and vehicle were administered i.p. 10 minutes before injection of formalin.
# Lacosamide (10 and 20 mg/kg), naproxen (8 and 16 mg/kg), combinations of lacosamide (10 and 20 mg/kg) with […] (8 and 16 mg/kg), and vehicle were administered i.p. 10 minutes before injection of formalin. Morphine (8 mg/kg) was included as a comparative treatment.
# [6] = lacosamide 10 and 30 mg/kg i.p.
# [7] = pregabalin 30 and 100 mg/kg i.p.
smiles,measurement,setting,value
NCC1(CC(=O)O)CCCCC1 [Gabapentin],"MPE (maximal possible effect) on biceps muscle grip strength, FIG. 4",[1]; 100 mg/kg i.p.,significantly different from vehicle
same,reversal of TNF-induced reduction of grip strength,[1]; 100 mg/kg i.p.,significant reversal; also recorded: improved grip strength
same,"MPE (maximal possible effect) on muscle pressure hyperalgesia, FIG. 2",[2]; gabapentin 100 mg/kg i.p.,significantly different from vehicle
same,reversal of muscular mechanical hyperalgesia (withdrawal threshold to muscle pressure),[2]; gabapentin 100 mg/kg i.p.,significant reversal
same,full reversal of the muscle hyperalgesia,[2]; gabapentin 100 mg/kg i.p.,Neither pregabalin nor gabapentin led to a full reversal
O=C(O)Cc1ccccc1Nc1c(Cl)cccc1Cl [diclofenac],paw pressure withdrawal threshold compared to iodoacetate/vehicle treated animals,[3]; diclofenac 30 mg/kg s.c.,increase in paw pressure withdrawal threshold
same,mechanical hyperalgesia,"[3]; diclofenac 30 mg/kg s.c., day 7",reduced mechanical hyperalgesia
"COC[C@@H](NC(C)=O)C(=O)NCc1ccccc1 [Lacosamide, (R)-2-acetamido-N-benzyl-3-methoxypropionamide]",paw pressure withdrawal threshold compared to iodoacetate/vehicle treated animals,[3]; lacosamide 3 mg/kg p.o.,increase in paw pressure withdrawal threshold
same,mechanical hyperalgesia,"[3]; lacosamide 10 mg/kg p.o., day 14",did not show a statistically significant effect
same,mechanical hyperalgesia,"[3]; lacosamide at all doses tested (3, 10 and 30 mg/kg p.o.), day 7",reduced mechanical hyperalgesia
same,mechanical hyperalgesia during the post-inflammatory period,[3]; lacosamide p.o.,inhibited mechanical hyperalgesia
same,tactile allodynia of iodoacetate-treated rats,[4]; lacosamide 30 mg/kg p.o.,improved
same,effect on time spent licking,[5]; Example 6,no clear effects
same,effect on time spent licking,[5]; Example 7,no clear effects
same,effect on number of flinches as compared with vehicle controls,"[5]; Example 7, lacosamide 10 and 20 mg/kg i.p.",did not clearly affect
same,grip strength test indicative of mechanical allodynia,[1]; lacosamide 10 mg/kg i.p.,reversed the effect of TNF
same,"MPE (maximal possible effect) on biceps muscle grip strength, FIG. 4",[1]; [6],significantly different from vehicle
same,reversal of TNF-induced reduction of grip strength,[1]; [6],significant reversal
same,reversal of muscular mechanical hyperalgesia (withdrawal threshold to muscle pressure),"[2]; lacosamide 30 mg/kg i.p., 30 to 60 minutes after drug",complete reversal; also recorded: full reversal
same,muscle hyperalgesia induced by TNF injection in the paw pressure test,"[2]; lacosamide 3, 10 and 30 mg/kg i.p.",dose-dependently improved
same,"MPE (maximal possible effect) on muscle pressure hyperalgesia, FIG. 2",[2]; [6],significantly different from vehicle
COc1ccc2cc([C@H](C)C(=O)O)ccc2c1 [Naproxen],effect on number of flinches or time spent licking as compared with vehicle controls,"[5]; Example 7, naproxen 8 and 16 mg/kg i.p.",did not clearly affect
CC12CC3CC(C)(C1)CC(N)(C3)C2 [Memantine],effect on number of flinches as compared with vehicle controls,"[5]; Example 6, memantine 4 and 8 mg/kg i.p.",did not clearly affect
CN1CC[C@]23c4c5ccc(O)c4O[C@H]2[C@@H](O)C=C[C@H]3[C@H]1C5 [Morphine],paw pressure withdrawal threshold compared to iodoacetate/vehicle treated animals,[3]; morphine 3 mg/kg s.c.,increase in paw pressure withdrawal threshold
same,mechanical hyperalgesia,"[3]; morphine 3 mg/kg s.c., day 7",reduced mechanical hyperalgesia
same,tactile allodynia of iodoacetate-treated rats,[4]; morphine 3 mg/kg s.c.,improved
same,effect on number of flinches and time spent licking as compared with vehicle controls,"[5]; Example 4, morphine 2 and 4 mg/kg i.p., effects did not reach statistical significance",dose-dependently decreased
same,effect on flinching and time spent licking as compared with vehicle controls,"[5]; Example 7, morphine 8 mg/kg i.p.",eliminated flinching and the time spent licking
CC(C)C[C@H](CN)CC(=O)O [pregabalin],"MPE (maximal possible effect) on biceps muscle grip strength, FIG. 4",[1]; 100 mg/kg i.p.,significantly different from vehicle
same,reversal of TNF-induced reduction of grip strength,[1]; 100 mg/kg i.p.,significant reversal; also recorded: improved grip strength
same,"MPE (maximal possible effect) on muscle pressure hyperalgesia, FIG. 2",[2]; [7],significantly different from vehicle
same,reversal of muscular mechanical hyperalgesia (withdrawal threshold to muscle pressure),[2]; [7],significant reversal
same,full reversal of the muscle hyperalgesia,[2]; gabapentin 100 mg/kg i.p.,Neither pregabalin nor gabapentin led to a full reversal
Cc1c(N(C)CS(=O)(=O)[O-])c(=O)n(-c2ccccc2)n1C.[Na+] [metamizol],"MPE (maximal possible effect) on biceps muscle grip strength, FIG. 4",[1]; metamizol 2 mg/kg i.p.,significantly different from vehicle
same,reversal of TNF-induced reduction of grip strength,[1]; metamizol 2 mg/kg i.p.,significant reversal
same,"MPE (maximal possible effect) on muscle pressure hyperalgesia, FIG. 2",[2]; metamizol 2 mg/kg i.p.,significantly different from vehicle
same,reversal of muscular mechanical hyperalgesia (withdrawal threshold to muscle pressure),[2]; metamizol 2 mg/kg i.p.,complete reversal
